Assay results from patent US5491072A, “N-alkylacridan carboxyl derivatives useful for chemiluminescent detection” (Lumigen, Inc., priority 1993, dated 1996).

Assays:
human transferrin = experiment: Chemiluminescent detection of proteins by Western blot
Excerpt: To determine the sensitivity of reagents of the present invention for detection of proteins by Western blotting, a model system of transferrin was used to provide polypeptide bands in known quantities.
Rabbit anti-goat IgG-peroxidase conjugate and rabbit anti-goat IgG-peroxidase were obtained from Cappel Products (Durham, N.C.). Human transferrin and fractionated goat anti-human transferrin serum were purchased from Sigma Chemical Co. (St. Louis, Mo.)). The IgG sample was centrifuged at 10,000 g for two minutes and the supernatant was used in the immunological reaction. Immobilon™-P transfer membrane was obtained from Millipore Corp. (Bedford, Mass.). Kodak (Rochester, N.Y.) X-OMAT AR and OMC films were used in the assay procedure.
SDS-PAGE was performed utilizing the buffer system described by Laemmli (U. K. Laemmli, Nature (London), 227, 680 (1970)). The stacking gel was 4.38% acrylamide: 0.12% bisacrylamide. The separating gel was 6.81% acrylamide: 0.19% bisacrylamide. Following electrophoresis the gel was equilibrated for 7-8 minutes with the transfer buffer which contained 20 mM Tris, 153 mMglycine and 20% (v/v) methanol. The gel, sandwiched between a sheet of transfer membrane and a sheet of chromatography paper 3MM (Whatman), was placed in the transfer unit (Bio-Rad Laboratories, Richmond, Calif.). […]

horseradish peroxidase [1] = target: T1, horseradish peroxidase (Armoracia rusticana, UniProt P00433); experiment: Sensitivity of detection of horseradish peroxidase using 1b and hydrogen peroxide; format: biochemical; conditions: 1b 46 μmol/L, 0.2 mmol/L hydrogen peroxide, 37° C.; for linear assay range for HRP: pH 8.0 tris
T1 sequence (P00433 31-338 limits assumed): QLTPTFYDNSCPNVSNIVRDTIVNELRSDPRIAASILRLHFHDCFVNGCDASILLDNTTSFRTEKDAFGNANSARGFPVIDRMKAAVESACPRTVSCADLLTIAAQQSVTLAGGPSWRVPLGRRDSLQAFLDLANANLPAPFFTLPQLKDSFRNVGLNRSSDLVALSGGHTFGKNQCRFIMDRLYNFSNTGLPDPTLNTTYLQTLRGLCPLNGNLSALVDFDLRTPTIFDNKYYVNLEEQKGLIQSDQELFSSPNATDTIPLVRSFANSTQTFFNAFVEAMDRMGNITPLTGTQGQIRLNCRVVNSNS
Procedure: (§1) The experiments in the following examples were performed using a Turner Designs TD-20e luminometer fitted with neutral density filter for light attenuation. Data collection, analysis and display were software controlled. Constant temperature was maintained by means of an external circulating water bath connected to the luminometer.
A matrix optimization experiment was done using 1b (0.1 mM-0.05 mM), hydrogen peroxide (4.4 mM-44 μM), HRP (9×10^-19 mol-1.4×10^-12 mol) at 37° C. The final assay reagent consists of 2.25×10^-3 M p-iodophenol, 0.5% Tween 20 and 1×10^-3 M EDTA in pH 8.0, 0.1M tris buffer. The best compromise between sensitivity and dynamic range was obtained using 1b (46 μmol/L) and 0.2 mmol/L hydrogen peroxide. These conditions gave a linear assay for HRP in the range of 9×10^-19 to 1.4×10^-14 mol (detection limit S/B=1.4 after 5 min with 9×10^-19 mol) or in the range of 9×10^-19 to 1.4×10^-15 mol (detection limit S/B=2 after 15 min with 9×10^-19 mol).
FIGS. 2A to 2C show the correlation of corrected signal to background vs. amount of HRP using solutions containing 0.05 mM 1b, 0.5% Tween 20, 1×10^-3 M EDTA in pH 8.0, 0.1M tris buffer.

horseradish peroxidase [2] = target: T1, horseradish peroxidase; experiment: Effect of pH and buffer salt on chemiluminescence of 1b; format: biochemical; conditions: 0.1 mM 1b, 0.8 mM H2O2, 2.25 mM p-iodophenol, 1.4×10^-15 mol HRP, 30 min, room temperature
Procedure: as §1
The present invention may be practiced over the pH range of at least 7-9 and functions with different buffering salts. Tubes containing 200 μL of a formulation containing 0.1 mM 1b in the specified buffer, 0.8 mM H2 O2, 2.25 mM p-iodophenol, 0.5% (w/w) Tween 20 and 1 mM EDTA were placed in the luminometer at room temperature. Horseradish peroxidase (1.4×10^-15 mol) was injected and the chemiluminescence intensity determined at 30 min. The time course of the light emission was similar in all four solutions. The optimum pH can vary with changes in the concentrations of the reactants.

horseradish peroxidase [3] = target: T1, horseradish peroxidase; experiment: Sensitivity of detection of horseradish peroxidase using 1b and sodium perborate; format: biochemical; conditions: 1b 46 μmol/L, 0.2 mmol/L perborate, 37° C.; for linear assay range for HRP: pH 8.0 tris
Procedure: as §1
A matrix optimization experiment was done using 1b (0.1 mM-0.05 mM), sodium perborate (3 mM-0.2 mM) and HRP (1.4×10^-18 mol-1.4×10^-14 mol) at 37° C. The final assay reagent consists of 2.25×10^-3 M p-iodophenol, 0.5% Tween 20 and 1×10^-3 M EDTA in pH 8.0, 0.1M tris buffer. The best compromise between sensitivity and dynamic range was obtained using 1b (46 μmol/L) and 0.2 mmol/L perborate. These conditions gave a linear assay for HRP in the range of […] to 1.4×10^-14 mol (detection limit S/B=1.4 after 5 min with 1.4×10^-18 mol) or in the range of 1.4×10^-18 to 1.4×10^-15 mol (detection limit S/B-1.5 after 15 min with 1.4×10^-18 mol).
FIGS. 3A to 3C show the correlation of corrected signal to background vs. amount of HRP using solutions containing 0.05 mM 1b, 0.5% Tween 20, 1×10^-3 M EDTA in pH 8.0, 0.1M tris buffer.

CN1c2ccccc2C(C(=O)Oc2ccc(O)cc2)c2ccccc21 [Compound 1b, 4'-Hydroxyphenyl 10-methylacridan-9-carboxylate]
duration of detectable chemiluminescence on membrane (X-ray film) (human transferrin; HRP-conjugate on membrane, Western blot): at least three hours | transferrin standards clearly visible down to (human transferrin; detection reagent with 5 × 10^-5 M 1b and NaBO3, 7 sec exposure X-OMAT AR film or 30 second exposure OMC film): 20 pg/slot | linear assay range for HRP (horseradish peroxidase [1]; after 5 min): 9e-19 to 1.4e-14 mol | linear assay range for HRP (horseradish peroxidase [1]; after 15 min): 9e-19 to 1.4e-15 mol | detection limit S/B (horseradish peroxidase [1]; after 5 min with 9×10^-19 mol HRP): 1.4 | detection limit S/B (horseradish peroxidase [1]; after 15 min with 9×10^-19 mol HRP): 2 | S/B (horseradish peroxidase [2]; 0.1 M phosphate buffer, pH 8.9): 306 | S/B (horseradish peroxidase [2]; 0.1 M tris buffer, pH 8.0): 1400 | S/B (horseradish peroxidase [2]; 0.1 M tris buffer, pH 8.5): 600 | S/B (horseradish peroxidase [2]; 0.1 M tris buffer, pH 8.9): 160 | linear assay range for HRP (horseradish peroxidase [3]; after 5 min): 4e-19 to 1.4e-14 mol | linear assay range for HRP (horseradish peroxidase [3]; after 15 min): 1.4e-18 to 1.4e-15 mol | detection limit S/B (horseradish peroxidase [3]; after 5 min with 1.4×10^-18 mol HRP): 1.4
